The nature of data set [1]: UV-Visible analysis in methanol. In kind it is physicochemical. The following applies: for Colour: methanol solution; for log ε / λmax visible / L1/2: methanol; for log ε: log of average molar extinction coefficient, characterizes the strength of the colour; for λmax visible: maximum absorption in visible spectra 400-800 nm, 1 cm quartz cuvette, characterizes the colour; for L1/2: width measured at A/2, characterizes the brilliance of the colour. The procedure: UV-Visible analysis was carried on a Genesys10 UV photometer and recorded with the help of “VisionLite Scan” software. For each molecule, a certain amount was weighed with a precision balance and fully dissolved (under sonication if necessary) in methanol to obtain a mother solution at 1 mg/mL. Serial dilutions were performed to obtain samples in a range from 0.0025 mg/mL to 0.5 mg/mL. Samples were analyzed from 190 to 800 nm in a 1 cm quartz cuvette. For each concentration, the wavelength of maximum absorption in the visible spectra (400-800 nm) was recorded with a precision of 2 nm, and the width was measured at A/2. Additionally, molar extinction coefficient ε was calculated for each sample and the log of the average value presented. λmax visible characterizes the colour, L1/2 characterizes the brilliance of the colour, ε characterizes the strength of the colour.

The conditions of data set [2]: pH 7.
Description: (§1) In order to validate a prediction model, the experimental and theoretical log P of five anthraquinones were assessed. Theoretical values were determined using Chemicalize's online software from ChemAxon, and experimental values were determined by UV-Vis spectroscopy assay using the protocol below.
(§2) A 1:1 mixture of octanol and water (pH=7) was prepared 24 hours before the assay in a reparatory funnel. A precise amount of the product was then added, and sonicated until complete dissolution. The phases were then vigorously stirred and left for 6 hours. The two phases were then separated, the organic phase diluted and analysed by UV spectrophotometry using a calibration curve previously carried out. The aqueous phase was acidified and evaporated. The residue was dissolved in octanol for analysis in UV-Vis spectrophotometry with the same method.
A short description of data set [3]: Experimental log P octanol/water by UV-Vis spectroscopy assay. The following applies: octanol/water (1:1), pH 7.
Description: as §1, §2

Consider `Cc1ccc(S(=O)(=O)Oc2cccc3c2C(=O)c2c(C)cc(Nc4ccccc4)cc2C3=O)cc1` [Compound 14, (6-anilino-8-methyl-9,10-dioxo-1-anthryl)-4-methylbenzenesulfonate], for which, in data set [1], the Colour result is “Red-purple”, the “log ε” value amounted to 3.12, the λmax visible is 508 nm and the L1/2 stood at 104 nm.
On to Quinizarin, for which the “Measured logP” value in data set [2] came to 3.7.
In data set [3], `O=C1c2cccc(O)c2C(=O)c2c(O)cccc21` [1,8-dihydroxy anthraquinone] yielded a logP at 6 h of 3.4.
With `Cc1cc(Nc2ccccc2)cc2c1C(=O)c1c(O)cccc1C2=O` [Compound 9, 3-anilino-8-hydroxy-1-methyl-anthracene-9,10-dione], in data set [1], the Colour result is ““Carmine-like” red”, the “log ε” value is on record as 2.25, the λmax visible is listed as 480 nm and the L1/2 stood at 104 nm.
Turning to `Cc1c(C(=O)O)c(O)cc2c1C(=O)c1c(O)cccc1C2=O` [Compound 7, 3,8-dihydroxy-1-methyl-9,10-dioxo-anthracene-2-carboxylic acid, reference compound], in data set [1], the Colour result is “Yellow”, the “log ε” value came out at 3.9, the λmax visible is reported as 408 nm and the L1/2 is on record as 86 nm.
On to `O=C1c2ccccc2C(=O)c2c1ccc(O)c2O` [Alizarin], for which the logP at 6 h in data set [3] was 2.8.
As to `Cc1cc(O)c(N)c2c1C(=O)c1c(O)cccc1C2=O` [Compound 17b, 1-amino-2,5-dihydroxy-4-methyl-anthracene-9,10-dione], in data set [1], the Colour result is listed as “Purple”, the “log ε” value was determined as 3.41, the λmax visible is recorded as 498 nm and the L1/2 was found to be 100 nm.
For `Cc1cc(NC2CCCCC2)cc2c1C(=O)c1c(NC3CCCCC3)cccc1C2=O` [Compound 12, 3,8-bis(cyclohexylamino)-1-methyl-anthracene-9,10-dione], in data set [1], the Colour entry was “Purple”, the “log ε” value was 2.46, the λmax visible is 524 nm and the L1/2 came out at 94 nm.
In the case of `CC(=O)Nc1cccc(Nc2cc(C)c3c(c2)C(=O)c2cccc(Nc4cccc(NC(C)=O)c4)c2C3=O)c1` [Compound 11, N-(3-((6-(3-acetamidoanilino)-8-methyl-9,10-dioxo-1-anthryl)amino)phenyl) Acetamide], in data set [1], the Colour result is on record as “Purple”, the “log ε” value is listed as 2.8, the λmax visible is 510 nm and the L1/2 came out at 128 nm.
As for `Cc1cc(O)cc2c1C(=O)c1c(O)cccc1C2=O` [Compound 5, 3,8-dihydroxy-1-methyl-anthracene-9,10-dione, reference compound], in data set [1], the Colour entry is recorded as “Yellow”, the “log ε” value was found to be 3.5, the λmax visible came to 408 nm and the L1/2 was 94 nm. In addition, in data set [3], the logP at 6 h turned out to be 3.2.
Take `Cc1cc(Nc2ccccc2)cc2c1C(=O)c1c(Nc3ccccc3)cccc1C2=O` [Compound 10, 3,8-dianilino-1-methyl-anthracene-9,10-dione]: in data set [1], the Colour entry is recorded as “Purple/red purplish”, the “log ε” value is 2.72, the λmax visible is 496 nm and the L1/2 is reported as 152 nm.
The like results for `COc1cc(C)c2c(c1)C(=O)c1cccc(O)c1C2=O` [Compound 6, 8-hydroxy-3-methoxy-1-methyl-anthracene-9,10-dione, reference compound] were, in that order, “Stronger yellow”, 3.62, 406 nm and 81 nm.
The like results for `Cc1c(C(=O)O)c(O)c(N)c2c1C(=O)c1c(O)ccc(N)c1C2=O` [Compound 19b, 4,5-diamino-3,8-dihydroxy-1-methyl-9,10-dioxo-anthracene-2-carboxylic acid] were, in that order, “Purple”, 3.25, 518 nm and 106 nm.
In turn, `Cc1cc(O)c2c(c1)C(=O)c1cccc(O)c1C2=O` [Chrysophanic acid] yielded a logP at 6 h in data set [3] of 4.
Turning to `Cc1cc(N)cc2c1C(=O)c1c(O)cccc1C2=O` [Compound 8, 3-amino-8-hydroxy-1-methyl-anthracene-9,10-dione], in data set [1], the Colour result was “Orange”, the “log ε” value turned out to be 2.44, the λmax visible is listed as 452 nm and the L1/2 was determined as 142 nm.
